In ChEMBL document CHEMBL4196047, “Discovery and evolution of aloperine derivatives as novel anti-filovirus agents through targeting entry stage” (Eur J Med Chem, 2018):
Activity calls are given as the source filed them. The calls are words filed in the database; no cut-off is given here.

Experiments:
Ebolavirus [1] = assay: microbe, parasite or virus in culture; assay type: functional, cell-based; conditions: Orthoebolavirus, HEK-293T
Marburgvirus [2] = assay: microbe, parasite or virus in culture; assay type: functional, organism-based; conditions: Orthomarburgvirus, HEK-293T
[3] = tested on: Vesicular stomatitis virus; assay: microbe, parasite or virus in culture; assay type: functional, organism-based; conditions: HEK-293T
in vitro [4] = conditions: human, HEK293T cells
in vitro [5] = conditions: human, HEK293T cells; remark: listed apart in the source
in vitro [6] = conditions: human, HEK293T cells; remark: listed apart in the source
HEK-293T [7] = assay: Inhibition of endosomal acidification in HEK293T cells at […] after 1 hr by LysoTracker Red dye-based confocal fluorescence microscopic analysis; assay type: functional, cell-based; conditions: Homo sapiens
[8] = Tmax in BALB/c mouse at 25 mg/kg, po; assay type: ADME, organism-based; conditions: in vivo
[9] = Cmax in BALB/c mouse at 25 mg/kg, po; assay type: ADME, organism-based; parameters: dose 25 mg/kg, route oral; conditions: in vivo
[10] = AUC (0 to t) in BALB/c mouse at 25 mg/kg, po; assay type: ADME, organism-based; conditions: in vivo
[11] = AUC (0 to infinity) in BALB/c mouse at 25 mg/kg, po; assay type: ADME, organism-based; parameters: dose 25 mg/kg, time infinity, route oral; conditions: in vivo
[12] = MRT in BALB/c mouse at 25 mg/kg, po; assay type: ADME, organism-based; conditions: in vivo
[13] = Half life in BALB/c mouse at 25 mg/kg, po; assay type: ADME, organism-based; conditions: in vivo
[14] = Toxicity in ig dosed Kunming mouse administered as single dose measured for 7 days; assay type: organism-based; conditions: in vivo, po
[15] = Toxicity in ip dosed Kunming mouse administered as single dose measured for 7 days; assay type: organism-based; conditions: in vivo
[16] = Toxicity in iv dosed Kunming mouse administered as single dose measured for 7 days; assay type: organism-based; conditions: in vivo
Marburgvirus [17] = assay: Antiviral activity against HIV1 pseudotyped MARV infected in BALB/c mouse at 100 ug, iv and ip measured at day 4 by bioluminescence assay relative to control; assay type: functional
Ebolavirus [18] = assay: Antiviral activity against HIV1 pseudotyped EBOV infected in HEK293T cells assessed as inhibition of late stage viral entry at 25 uM treated for 1 hr before infection measured after 72 hrs by luciferase reporter gene assay relative to control; assay type: functional; conditions: Orthoebolavirus, HEK-293T
Ebolavirus [19] = assay: Antiviral activity against HIV1 pseudotyped EBOV infected in HEK293T cells assessed as inhibition of late stage viral entry at 25 uM treated during infection measured after 72 hrs by luciferase reporter gene assay relative to control; assay type: functional; conditions: Orthoebolavirus, HEK-293T
Ebolavirus [20] = assay: Antiviral activity against HIV1 pseudotyped EBOV infected in HEK293T cells assessed as inhibition of late stage viral entry at 25 uM treated for 1 hr post infection measured after 72 hrs by luciferase reporter gene assay relative to control; assay type: functional; conditions: Orthoebolavirus, HEK-293T
[21] = target: Cathepsin B (Homo sapiens) (UniProt P07858); assay: Inhibition of cathepsin B in HEK293 cells using N-benzyloxycarbonyl-L-arginyl-L-arginine-7-amido-4-methylcoumarin as substrate; assay type: cell-based
[22] = target: Procathepsin L (Homo sapiens) (UniProt P07711); assay: Inhibition of cathepsin L in HEK293 cells using N-benzyloxycarbonyl-L-phenylalanyl-L-arginine-7-amido-4-methylcoumarin as substrate; assay type: cell-based
HEK-293T [23] = assay: Inhibition of endosomal acidification in HEK293T cells at 20 to 40 uM after 1 hr by LysoTracker Red dye-based confocal fluorescence microscopic analysis; assay type: functional, cell-based; conditions: Homo sapiens

Procathepsin L (Homo sapiens), sequence (P07711 114-333 limits assumed): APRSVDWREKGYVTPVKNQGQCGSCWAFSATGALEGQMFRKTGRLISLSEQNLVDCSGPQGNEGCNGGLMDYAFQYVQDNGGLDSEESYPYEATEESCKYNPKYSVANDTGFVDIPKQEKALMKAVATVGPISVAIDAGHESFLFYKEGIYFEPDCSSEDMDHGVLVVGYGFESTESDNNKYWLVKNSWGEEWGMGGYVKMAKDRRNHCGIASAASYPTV

| SMILES | EC50 (Ebolavirus [1]) [µM] | EC50 (Marburgvirus [2]) [µM] | EC50 [3] [µM] | CC50 (in vitro [4]) [µM] | selectivity ratio (in vitro [5]) | selectivity ratio (in vitro [6]) | also measured |
| --- | --- | --- | --- | --- | --- | --- | --- |
| FC(F)(F)Oc1ccc(CN2CCCC3=C[C@H]4C[C@H](CN5CCCC[C@H]45)[C@@H]32)cc1 | 10.4 | 11.9 | 22.4 | 82 | 7.9 | 6.9 |  |
| Clc1ccc(CN2CCCC3=C[C@H]4C[C@H](CN5CCCC[C@H]45)[C@@H]32)cc1 | 11.9 | 9.8 | 77.8 | > 200 | > 16.8 | > 20.4 |  |
| Clc1ccc(CCN2CCCC3=C[C@H]4C[C@H](CN5CCCC[C@H]45)[C@@H]32)cc1Cl | 6.8 |  | 44 | 51.5 | 7.6 |  |  |
| Clc1ccc(CCCN2CCCC3=C[C@H]4C[C@H](CN5CCCC[C@H]45)[C@@H]32)cc1 | 7.1 |  | 49.9 | 74.1 | 10.4 |  |  |
| Cl.N |  |  |  |  |  |  | inhibition (HEK-293T [7]): Active |
| O=C(c1ccc(Cl)c(Cl)c1)N1CCCC2=C[C@H]3C[C@H](CN4CCCC[C@H]34)[C@@H]21 | 49 | 80.8 | 98.6 | 200 | 4.1 | 2.5 |  |
| Clc1ccc(CCN2CCCC3=C[C@H]4C[C@H](CN5CCCC[C@H]45)[C@@H]32)cc1 | 6 |  | 52.2 | 83.3 | 13.9 |  |  |
| Fc1ccc(CN2CCCC3=C[C@H]4C[C@H](CN5CCCC[C@H]45)[C@@H]32)cc1 | 17 | 21.5 | 107 | > 200 | > 11.8 | > 9.3 |  |
| Clc1cc(Cl)cc(CCN2CCCC3=C[C@H]4C[C@H](CN5CCCC[C@H]45)[C@@H]32)c1 | 5.7 |  | 42.5 | 56 | 9.8 |  |  |
| O=S(=O)(c1cccs1)N1CCCC2=C[C@H]3C[C@H](CN4CCCC[C@H]34)[C@@H]21 | 33.2 | 62.4 | > 200 | > 200 | > 6 | > 3.2 |  |
| Cc1ccccc1CN1CCCC2=C[C@H]3C[C@H](CN4CCCC[C@H]34)[C@@H]21 | 16.6 | 15 | 39 | 162 | 9.7 | 10.8 |  |
| C1=C2CCCN[C@H]2[C@@H]2C[C@H]1[C@H]1CCCCN1C2 | 12.4 | 10.2 | 103 | > 200 | > 16.1 | > 19.6 |  |
| COc1cccc(CN2CCCC3=C[C@H]4C[C@H](CN5CCCC[C@H]45)[C@@H]32)c1 | 12.1 | 17.8 | 59 | > 200 | > 16.5 | > 11.2 |  |
| Clc1ccc(CN2CCCC3=C[C@H]4C[C@H](CN5CCCC[C@H]45)[C@@H]32)c(Cl)c1 | 6.6 | 6.4 | 10.6 | > 200 | > 30.3 | > 31.2 |  |
| O=S(=O)(c1ccc(Cl)c(Cl)c1)N1CCCC2=C[C@H]3C[C@H](CN4CCCC[C@H]34)[C@@H]21 | 24.1 | 10.5 | 45.4 | > 200 | > 8.3 | > 19 |  |
| C1=C2CCCN(Cc3ccccc3)[C@H]2[C@@H]2C[C@H]1[C@H]1CCCCN1C2 | 15.2 | 22 | 28.3 | 168 | 11 | 7.6 |  |
| Clc1ccc(CCCN2CCCC3=C[C@H]4C[C@H](CN5CCCC[C@H]45)[C@@H]32)cc1Cl | 5.8 |  | 23 | 29.3 | 5 |  |  |
| O=S(=O)(c1cc(Cl)cc(Cl)c1)N1CCCC2=C[C@H]3C[C@H](CN4CCCC[C@H]34)[C@@H]21 | 10.6 | 27.2 | 31.3 | > 200 | > 18.9 | > 7.4 |  |
| Clc1cc(Cl)cc(CN2CCCC3=C[C@H]4C[C@H](CN5CCCC[C@H]45)[C@@H]32)c1 | 8.1 | 8.5 | 34.3 | 83.5 | 10.3 | 9.8 |  |
| O=C(c1cc(Cl)cc(Cl)c1)N1CCCC2=C[C@H]3C[C@H](CN4CCCC[C@H]34)[C@@H]21 | 39.8 | 35.3 | > 200 | > 200 | > 5 | > 5.7 |  |
| N#Cc1cccc(S(=O)(=O)N2CCCC3=C[C@H]4C[C@H](CN5CCCC[C@H]45)[C@@H]32)c1 | 69.4 | 70.7 | > 200 | > 200 | > 2.9 | > 2.8 |  |
| O=S(=O)(c1ccc(Cl)cc1)N1CCCC2=C[C@H]3C[C@H](CN4CCCC[C@H]34)[C@@H]21 | 21.8 | 18.8 | 104 | > 200 | > 9.2 | > 10.6 |  |
| Clc1cc(Cl)cc(CCCN2CCCC3=C[C@H]4C[C@H](CN5CCCC[C@H]45)[C@@H]32)c1 | 6.1 |  | 19.6 | 25.9 | 4.2 |  |  |
| O=C(c1ccc(Cl)cc1)N1CCCC2=C[C@H]3C[C@H](CN4CCCC[C@H]34)[C@@H]21 | 34.1 | 112 | 89.6 | > 200 | > 5.9 | > 1.8 |  |
| Clc1ccc(CN2CCCC3=C[C@H]4C[C@H](CN5CCCC[C@H]45)[C@@H]32)cc1Cl | 4.8 | 7.1 | > 200 | > 200 | > 41.7 | > 28.2 | Tmax [8]: 0.67 h; Cmax [9]: 290 nM; AUC(0-t) [10]: 2.74 µM·h; AUC(0-inf) [11]: 4.89 µM·h; MRT [12]: 4.89 h; half-life [13]: 4.14 h; LD50 at 168 h [14]: 458 mg/kg; LD50 at 168 h [15]: > 100 mg/kg; LD50 at 168 h [16]: 28.3 mg/kg; Activity (Marburgvirus [17]): 45%; inhibition at 25 µM (Ebolavirus [18]): < 38%; inhibition at 25 µM (Ebolavirus [19]): 23 to 66%; inhibition at 25 µM (Ebolavirus [20]): 85%; inhibition [21]: Active; inhibition [22]: inactive; inhibition (HEK-293T [23]): inactive |
